From patent publication US8735140B2, “Preservation and composition of bioprocess algae for production of lipids, seedstock, and feed” (Kuehnle AgroSystems, Inc., priority 2008, dated 2014)

Assays:
Dunaliella cells = assay: Trehalose loading of Dunaliella, shelf storage and recovery in fresh medium; assay type: cell-based, D. salina; conditions: 0.5 and 1.0 M trehalose
Method: First, cells in log phase are spun down at 1500×g for 10 minutes. Supernatant is decanted and the pellet is gently re-suspended in a minimal volume of medium and placed in a 1 L flask. The cell count of the slurry is 1.776×10^8 cells/ml. Next, four 50 ml tubes are prepared with aliquots of 21 ml of slurry in each tube prior to re-suspension, in a defined extracellular concentration of α-trehalose (α-D-glycosyl-α-D-glycosylpyranoside, Hayashibara Co., in Melis medium at a salinity of 1.0 M NaCl (referred to as 1M Melis). The cells are then spun down again and the pellets are re-suspended in 200 ml of treatment medium, that is, 1M Melis with or without added trehalose. The four preservation treatments in 1M Melis are performed in the following four sets in triplicate: no trehalose ([…]), 0.5M trehalose, 1.0M trehalose, and 2.0M trehalose. The cell density after re-suspension is at 1.865×10^7 cells/ml. During the re-suspension of cell pellets in 1M Melis, 2.0M trehalose, the pellet is not completely broken apart, yielding visible clumps in the suspension. After the re-suspension, cells are transferred to 250 ml flasks and left on the shelf at a temperature of 23-27° C. and light Intensity <5 μE/m^2-sec, without any agitation or aeration. […]

Chlorella KAS603 = assay: Trehalose preservation, pretreatment with 0.5M sorbitol and embedding in alginate mat; assay type: cell-based; conditions: for % viability after storage & rejuvenation / Cell recovery after storage, relative to control: 0M control = 100%; for Cell number after 21 weeks in storage & rejuvenation: 3 weeks rejuvenation; for Growth after storage & rejuvenation: 21 weeks + 3 weeks rejuvenation
Method: (§1) Cells in 40 ml flask cultures are grown to mid-log phase with a density of between 3×10^6 and 3×10^7 cells/ml, and are centrifuged. Culture medium is removed after centrifugation, resulting in more concentrated algae cells. Cells are then re-suspended in ideal glass solution consisting of fresh culture medium and trehalose at a concentration of 0.1M, 0.3M, and 0.5M (dihydrate trehalose 100 from Hayashibara Co. Ltd, Okayama, Japan), respectively, and left overnight with mild agitation. Cells are centrifuged again to remove the ideal glass solution the next day, and are re-suspended in fresh or salt water without any nutrient. The cell density of the resulting suspension is determined prior to storage under the various treatments. (Some cells were also treated with a 0.5M sorbitol solution). In one specific embodiment, 2% (w/v) alginate solution (Sigma-Aldrich A-2033) and 3% CaCl2 solution (Sigma-Aldrich C1016) are prepared in salt water or fresh water medium as required by specific algae species, and autoclave sterilized. Then, 2.0 ml 2% alginate solution is pipetted into each well of a BD Falcon 12-well plate. 0.2 ml algae cell suspension is then pipetted into each well and the mixture is further stirred. The alginate-cell mixture is further sprayed with 3% CaCl2 solution in a sterile pump bottle, allowing the alginate to solidify. After solidification, plates are closed and placed under low light and at ambient temperature. After stored under the above preservation conditions for 5 months, algae cells can be rejuvenated by overlaying alginate/algae mixture with 3.0 ml sterile 5.0% NaPolyphosphate (Sigma Aldrich 305553) and allowing to the mixture sit overnight. The algae/alginate/NaPolyphosphate mixture is then removed from the 12-well plate, diluted with fresh medium (3 parts fresh medium to 1 part cell suspension) and placed under light. In one specific embodiment, cells are treated with trehalose solution at various concentrations and left overnight. Cells are centrifuged the next day to remove the trehalose solution, and then re-suspended in sterile 0.5M D-sorbitol (Fisher Scientific […]) dissolved in salt or fresh-water medium as required by specific algae species. Cells are left to stand for 2 hours with mild agitation. After 2 hours, cells are centrifuged again to remove the 0.5M sorbitol solution and re-suspended in fresh or salt-water medium. Cells are counted after the re-suspension. Cell viability is determined by comparing the cell growth in control set with the experimental set. Specifically, cell counts are performed on all samples. The averaged density value (in cells per ml) for all the cultures after treatment is defined as “rejuvenation cell count.” In some samples, the percent recovery of cells immediately after storage is also determined. The formulae are illustrated as follows: Growth=(rejuvenation cell count)/(initial cell count) Cell recovery after storage=(cell density after storage)/(initial cell density), with controls set at 100% cell recovery. Viability after storage and rejuvenation in nutrient medium=(Growth of treatment)/(Growth of control)×100%, with controls set at 100% viability

Tetraselmis KAS633 = assay: as above; assay type: cell-based; conditions: for % viability after storage & rejuvenation / Cell recovery after storage, relative to control: 0M control = 100%; for Cell number after 21 weeks in storage & rejuvenation: 3 weeks rejuvenation; for Growth after storage & rejuvenation: 21 weeks + 3 weeks rejuvenation; for Cell recovery after storage, relative to control: 21 weeks
Method: as §1

algae cells = assay: Trehalose treatment, viability at room temperature under low light; assay type: cell-based
Method: Cells in 40 ml flask cultures are grown to mid-log phase with a density of between 3×10^6 and 3×10^7 cells/ml, and are centrifuged. Culture medium is removed after centrifugation, resulting in more concentrated algae cells. Cells are then re-suspended in ideal glass solution consisting of fresh culture medium and trehalose at a concentration of 0.1M, 0.3M, and 0.5M (dihydrate trehalose 100 from Hayashibara Co. Ltd, Okayama, Japan), respectively, and left overnight with mild agitation. Cells are centrifuged again to remove the ideal glass solution the next day, and are re-suspended in fresh or salt water without any nutrient. The cell density of the resulting suspension is determined prior to storage under the various treatments. (Some cells were also treated with a 0.5M sorbitol solution). Cell viability is determined by comparing the cell growth in control set with the experimental set. Specifically, cell counts are performed on all samples. The averaged density value (in cells per ml) for all the cultures after treatment is defined as “rejuvenation cell count.” In some samples, the percent recovery of cells immediately after storage is also determined. The formulae are illustrated as follows: Growth=(rejuvenation cell count)/(initial cell count) Cell recovery after storage=(cell density after storage)/(initial cell density), with controls set at 100% cell recovery. […]

[1] = 0.1M trehalose in F/2, 0.5M sorbitol pretreatment
[2] = 0.1M trehalose in F/2, 0.5M sorbitol pretreatment, 21 weeks
[3] = 0.3M trehalose in F/2, 0.5M sorbitol pretreatment
[4] = 0.5M trehalose in F/2, 0.5M sorbitol pretreatment

## OC[C@H]1O[C@H](O[C@H]2O[C@H](CO)[C@@H](O)[C@H](O)[C@H]2O)[C@H](O)[C@@H](O)[C@@H]1O [trehalose, α-D-glycosyl-α-D-glycosylpyranoside]
Dunaliella cells; 4.5-week period, FIG. 3
  Functional recovery: exhibit functional recovery
Dunaliella cells; 8-week period, no cell growth observed
  Functional recovery: negligible functional recovery
Chlorella KAS603; [1]
  Cell number after 21 weeks in storage: 1.920 × 10^7
  % viability after storage & rejuvenation: (105)%
  Cell number after 21 weeks in storage & rejuvenation: 3.102 × 10^7 cells/ml
  Growth after storage & rejuvenation: 1.62
Chlorella KAS603; [2]
  Cell recovery after storage: 1.76
  Cell recovery after storage, relative to control: (61%)
Chlorella KAS603; [3]
  Cell number after 21 weeks in storage: 2.378 × 10^7
  % viability after storage & rejuvenation: (139)%
  Cell number after 21 weeks in storage & rejuvenation: 5.099 × 10^7 cells/ml
  Growth after storage & rejuvenation: 2.14
Chlorella KAS603; 0.3M trehalose in F/2, 0.5M sorbitol pretreatment, 21 weeks
  Cell recovery after storage, relative to control: (123%)
Chlorella KAS603; [4]
  Cell number after 21 weeks in storage: 2.113 × 10^7
  % viability after storage & rejuvenation: (160%)
  Cell number after 21 weeks in storage & rejuvenation: 5.197 × 10^7 cells/ml
  Growth after storage & rejuvenation: 2.46
Chlorella KAS603; 0.5M trehalose in F/2, 0.5M sorbitol pretreatment, 21 weeks
  Cell recovery after storage, relative to control: (155%)
Tetraselmis KAS633; [1]
  Cell number after 21 weeks in storage: 2.831 × 10^6
  % viability after storage & rejuvenation: (104%)
  Cell number after 21 weeks in storage & rejuvenation: 1.163 × 10^7 cells/ml
  Growth after storage & rejuvenation: 4.1
  Cell recovery after storage, relative to control: (78%)
Tetraselmis KAS633; [3]
  Cell number after 21 weeks in storage: 2.276 × 10^6
  % viability after storage & rejuvenation: (158%)
  Cell number after 21 weeks in storage & rejuvenation: 1.420 × 10^7 cells/ml
  Growth after storage & rejuvenation: 6.23
  Cell recovery after storage, relative to control: (80%)
Tetraselmis KAS633; [4]
  Cell number after 21 weeks in storage: 1.899 × 10^6
  % viability after storage & rejuvenation: 186%
  Cell number after 21 weeks in storage & rejuvenation: 1.399 × 10^7 cells/ml
  Growth after storage & rejuvenation: 7.34
  Cell recovery after storage, relative to control: (58%)
Algae cells
  Period for which cells remain viable: at least 5 months
